Several values for one entry are separate records, joined by “and”; a condition that tells them apart may be missing. Equal values may be shown once.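 Where inhibition never reached the appropriate level, the endpoint shown equals the highest concentration tested. Otherwise, values were interpolated linearly from a five-concentration, 48-hour dose response in 96-well plates. GI50 is the concentration that inhibits growth by half. Definition used: TGI = concentration required for complete inhibition of growth.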
Tested on: MDA-MB-468 breast
Test: NCI-60 cell line screen, 48 h

Structure (SMILES) | GI50 | TGI
C[C@@]1(C(=O)Nc2ccc(F)nc2)CCCN1c1nc(Nc2cc(C3CC3)[nH]n2)c2cccn2n1 | 0.25 µM and 0.526 µM | 4.37 µM
CCNCc1c(-c2cccc(OC(F)(F)F)c2)[nH]c2ccc(N3CCCC3)cc2c1=O | 2.22 µM | 5.74 µM
O=C(NNc1nc2cc(F)c(F)cc2n2cccc12)c1ccncn1 | 0.241 µM | 1.58 µM
N#Cc1c(-c2ccccc2)cc(-c2ccccc2)n(CCCC(=O)NO)c1=O | 1.46 µM | 4.56 µM
Cn1ncc(NC(=O)c2nc(-c3c(F)cccc3F)sc2N)c1N1CC[C@@H](N)[C@H](F)CC1 | 9.7 µM | 26.8 µM
Nc1nonc1C(=Nc1ccc(F)c(Cl)c1)NO | 29.8 µM | > 100 µM
CCN(CC)Cc1cc(Nc2c3ccc(Cl)cc3nc3ccc(OC)cc23)ccc1O | 1.71 µM | 3.67 µM
C#C[C@]1(O)CC[C@H]2[C@@H]3CC=C4c5sc(Nc6nc(C)cc(OC)n6)nc5CC[C@]4(C)[C@H]3CC[C@@]21C | 4.47 µM | > 100 µM
COc1cc2ccnc(C=O)c2cc1OC | 31.9 µM | > 100 µM
CCO/C=N/C1=C(C#N)C(c2ccc(OC)cc2)c2sc3c(F)cccc3c2O1 (stereo not drawn) | 2.41 µM | 19.4 µM
O=C(Nc1nc(-c2ccc(Cl)cc2)cs1)c1cc(-c2ccc(Br)cc2)nc2ccc(Cl)cc12 | 10.9 µM | 78.3 µM
COc1cc2c(cc1I)-c1c(cc(OC)c(OC)c1OC)CC[C@@H]2NC(C)=O | 0.244 µM | 0.738 µM
CCn1c(=O)c(Oc2ccc(F)cc2F)cc2cnc(NC3CCOCC3)nc21 | > 25 µM | > 25 µM
COC(=O)[C@@H](C)C[C@H](Cc1ccc2ccccc2c1)NC(=O)c1csc([C@@H](C[C@H](C(C)C)N(C)C(=O)[C@@H](NC(=O)[C@H]2CCCCN2C)C(C)C)OC(C)=O)n1 | 0.00683 µM | > 25 µM
COc1ccc(CC(C)=C(c2ccc(OCCN3CCCCCC3)cc2)c2ccc(OCCN3CCCCCC3)cc2)cc1 | 0.176 µM | 0.667 µM
CCOC(=O)N1C/C(=C/c2ccc(Cl)cc2)C(=O)/C(=C/c2ccc(Cl)cc2)C1 | 1.96 µM | 5 µM
Clc1ccc2c(c1)C(Br)c1cc(Cl)cc(Cl)c1-2 (stereo not drawn) | 35.6 µM | > 100 µM
COc1cc(-c2ccc(-c3ccc(C(=N)N)cc3)s2)cc(OC)c1OC | 1.64 µM | 3.15 µM
c1ccc2cc(C[n+]3ccn(CCCCCCCCCCCCn4cc[n+](Cc5ccc6ccccc6c5)c4)c3)ccc2c1 | 0.494 µM | 1.28 µM
CC1(C)C(N(O)C(=O)Nc2ccc(Cl)cc2)N(c2ccc(Cl)cc2)C(=O)N1CC(=O)N/N=C/C=C/c1ccc([N+](=O)[O-])o1 (stereo not drawn) | 1.62 µM | 5.35 µM

Structure (SMILES) | GI50 | TGI
C[n+]1c(-c2ccccc2)c2cc(N)ccc2c2ccccc21 | 0.224 µM | 1.53 µM
COc1cc(/C=C/c2cc(/C=C/c3ccc(O)c(OC)c3)n(-c3c(Cl)cccc3Cl)c(=O)n2)ccc1O | 2.76 µM | 7.18 µM
Nc1nc(N)c(N=Nc2ccccc2)c(-c2ccccc2)n1 | 1.06 µM | 11.4 µM
COc1ccc(-c2cc(-c3ccccc3)nc(SCCCC(=O)NO)n2)cc1OC | 1.44 µM | 3.62 µM
C#CCn1cnc2cnc(Nc3cccc(NC(=O)CCl)c3)nc21 | 8.13 µM | 22.8 µM
c1ccc([P+](c2ccccc2)(c2ccccc2)c2ccc3c4ccc([P+](c5ccccc5)(c5ccccc5)c5ccccc5)c5cccc(c6cccc2c63)c54)cc1 | 0.838 µM | 7.46 µM
O=C(c1ccc(Cl)cc1)c1no[n+]([O-])c1C(=O)c1ccc(Cl)cc1 | 9.22 µM | 27.7 µM
CC(C)=CCC/C(C)=C/CC/C(C)=C/CC/C(C)=C/CSC[C@H](NC(=O)CCCCCN1CCN(C)CC1)C(=O)NC1CCCCC1 | 1.97 µM | 4.49 µM
COc1cc2c(cc1OCCCCCn1c(-c3ccc(OCc4ccccc4)cc3)nc3cc(N4CCOCC4)ccc31)N=C[C@@H]1CCCN1C2=O | 0.936 µM | 5.1 µM
CC(=O)/C=C/c1ccc(OCc2ccc(C(C)(C)C)cc2)cc1 | 33.9 µM | > 1000 µM
O=c1c2cc(F)ccc2sc2c(Nc3ccncc3)nc3ccccc3c12 | 1.78 µM | 3.5 µM
COc1ccc(/C=C/C(=O)c2cc3c(N)c(C(=O)Nc4cccc(Cl)c4C)sc3nc2C)cc1 | 0.176 µM | 2.45 µM
CNC(=O)NCC1OC(n2cnc3c(NC(=O)Nc4ccccc4)ncnc32)C(O[Si](C)(C)C(C)(C)C)C1CC(=O)N(C)OC (stereo not drawn) | 1.87 µM | 6.38 µM
C=C1C(=O)O[C@H]2[C@H]1CC/C(COC(=O)/C=C/C(=O)NCc1ccc(Cn3c(=O)sn(-c4ccccc4)c3=O)cc1)=C\CC[C@@]1(C)O[C@@H]21 | 1.35 µM | 3.69 µM
CCNC(=O)N1CCc2cc(OC)c(OCCc3ccc(OC)c(N)c3)cc2C1c1ccc(C)cc1C (stereo not drawn) | 0.301 µM | 15.8 µM
CC1(C)CN(c2cc(C(F)(F)F)cc3cncn23)CCC12NC(=O)NC2=O (stereo not drawn) | 22.5 µM | 82.9 µM
O=C(Nc1ccc(Br)cc1)Nc1nc2ccc([N+](=O)[O-])cc2s1 | 1.67 µM | 3.29 µM
O=C1[C@@H]2Cc3c([nH]c4ccccc34)[C@H](c3c(Cl)cccc3Cl)N2C(=O)CN1C1CCN(Cc2ccccc2)CC1 | 2.09 µM | 4.27 µM
COc1cc2c3c(n(CCCNC4CCC4)c(=O)c2cc1OC)-c1cc2c(cc1C3=O)OCO2 | 1.41 µM | 3.22 µM

— PubChem BioAssay (NCI)
